Reference: US6596712B2, “Treatment of carcinomas using squalamine in combination with other anti-cancer agents or modalities” (Genaera Corporation, priority 1996, dated 2003)

Columns and labels:
[1] = system: capillary beds of young chick embryos; experiment: Capillary regression in chick embryo capillary beds; assay type: in vivo; details: one time dose 100 ng
Procedure: A one time dose (100 ng) of squalamine was applied to capillary beds of young chick embryos that were 2-3 days old. After five minutes, this dose of squalamine appeared to have little effect on the capillary beds.
The capillary bed also was observed after sixty minutes. At this time, it was noted that some of the capillary vessels were beginning to re-appear, but only the more major vessels were re-appearing. The small vessels were not re-appearing at that time. Four to five days after the one time squalamine treatment, the effect of the squalamine dose was no longer apparent, but newly formed capillaries in the embryos remained susceptible to squalamine induced regression for a limited time while they were newly formed.
From this test, applicants concluded that squalamine-induced capillary regression is reversible, at least with respect to certain capillaries.

[2] = molecular target: T1, rabbit NHE3 with 76 C-terminal amino acids removed (Oryctolagus cuniculus, UniProt P26432); experiment: Rabbit NHE3 with the 76 C-terminal amino acids removed; assay type: cell-based
T1 construct: expressed in transfected cells
T1 sequence (P26432 30-756): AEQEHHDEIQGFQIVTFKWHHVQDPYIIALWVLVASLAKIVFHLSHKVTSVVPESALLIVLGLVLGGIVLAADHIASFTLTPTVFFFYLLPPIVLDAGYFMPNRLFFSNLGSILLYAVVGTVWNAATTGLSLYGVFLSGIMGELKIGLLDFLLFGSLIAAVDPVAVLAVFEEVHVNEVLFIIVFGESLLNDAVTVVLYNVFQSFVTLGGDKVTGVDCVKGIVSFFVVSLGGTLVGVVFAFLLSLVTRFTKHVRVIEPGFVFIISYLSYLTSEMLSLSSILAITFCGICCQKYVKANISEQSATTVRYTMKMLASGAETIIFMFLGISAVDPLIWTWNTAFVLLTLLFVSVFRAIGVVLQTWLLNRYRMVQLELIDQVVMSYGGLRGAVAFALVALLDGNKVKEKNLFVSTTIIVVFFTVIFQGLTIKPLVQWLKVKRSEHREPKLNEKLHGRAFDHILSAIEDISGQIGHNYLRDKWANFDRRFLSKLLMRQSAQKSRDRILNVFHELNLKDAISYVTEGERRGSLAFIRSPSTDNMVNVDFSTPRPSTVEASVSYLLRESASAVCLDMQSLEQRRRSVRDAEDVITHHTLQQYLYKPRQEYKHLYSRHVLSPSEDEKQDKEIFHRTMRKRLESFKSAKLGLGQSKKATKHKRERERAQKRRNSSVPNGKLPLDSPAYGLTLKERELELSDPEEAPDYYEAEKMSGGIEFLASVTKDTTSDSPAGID
Description: This NHE3 inhibiting activity of squalamine has been mapped to the 76 C-terminal amino acids on the NHE3 molecule. […] Thus, the 76 C-terminal amino acids of NHE3 are the site of inhibition by squalamine.

[3] = system: brush border membrane vesicle (BBMV) NHE; experiment: Brush border membrane vesicle (BBMV) NHE inhibition; assay type: biochemical; details: tissue pretreated; 30 minutes exposure
[4] = system: human brain capillary endothelial cells; experiment: Growth factor stimulated growth of human brain capillary endothelial cells; assay type: cell-based
Description: Thus, as the tumor puts out a variety of different growth factors, squalamine has an inhibitory effect on several.

[5] = Squalamine toxicity test in rats; assay type: in vivo; details: 20 mg/kg/day i.p. for more than 30 days; maintained up to 200 days
Procedure: A squalamine toxicity test was performed in another animal model. Conventional cytotoxic chemical compounds are quite toxic. […] For this reason, it is administered only one time to a patient. The use of BCNU is described on pages 304 and 305 of Calabresi in Medical Oncology, supra. In order to test the toxicity of squalamine, a group of rats was given a daily squalamine dose of 20 mg/kg/day (i.p.) for more than 30 days and maintained for up to 200 days following dosing.

[6] = system: 9L gliosarcoma tumors (9L glioma); experiment: 9L glioma flank study; assay type: in vivo, Fisher 344 rats; details: Day 25 or 26 after implantation, treatment from Day 5 per Table 4
Procedure: Four groups of rats (twenty total Fisher 344 rats, 200 g) were given s.q. transplants of 1 mm3 9L gliosarcoma tumors (9L glioma) on Day 0. The tumors were implanted in the rat flanks to avoid complications relating to adequate brain levels of squalamine. Randomization and treatment began on Day 5 according to the following scheme:
On Day 25 or 26 after tumor implantation, the tumor size was measured directly. The tumor size (i.e., its volume “V”) was estimated based on volumetric calculations determined from the measured length (“L”), width (“W”), and height (“H”) of the tumor (Vtumor spheroid˜0.5 ×L×W×H). The tumor volumes shown in Table 5 represent the mean tumor volumes for each treatment group for those animals that survived to the end of the experiment.

[7] = system: human MX-1 breast cancer line; assay type: in vivo
Procedure: These documents each are entirely incorporated herein by reference. Squalamine was examined as adjunctive therapy following a single 200 mg/kg dose of cyclophosphamide. The cyclophosphamide was injected on day 14 following implantation of the tumor, at a time when the tumors measured 65-125 μl. […] The animals were then randomized to three treatment arms (each n=27): vehicle dosing only (Intralipid); squalamine given 10 mg/kg/day in Intralipid; and squalamine given 20 mg/kg/day in Intralipid for five days a week. Animals whose tumors exceeded 2 grams at any time during the experiment were euthanized. The experiment was continued for 90 days after initiating squalamine treatment to ensure that only mice experiencing long-term cures were still alive.

[8] = system: Calu-6 human lung adenocarcinoma line; experiment: Nude mouse xenograft model of lung cancer with cisplatin, Calu-6; assay type: in vivo; details: started on day 4 or 5, daily i.p.
Description: Studies in a nude mouse xenograft model of lung cancer have been carried out using several human lung cancer lines which differ in their growth rate. […] The experimental lung cancer model design involves subcutaneous injection of 5×10^6 tumor cells followed by a single injection of the chemotherapeutic drug on day 3 or 4. […] Groups of mice receiving squalamine alone started receiving the aminosterol on the same day as aminosterol treatment in the combination chemotherapy groups. Tumor volumes were then determined at termination of the experiment and compared.

[9] = system: murine Lewis lung adenocarcinoma; experiment: Lung metastases of subcutaneous Lewis lung carcinoma; assay type: in vivo, C57BL/6 mice; details: day 20; squalamine 20 mg/kg/day s.c.; cyclophosphamide 125 mg/kg i.p. days 7, 9, 11; cisplatin 10 mg/kg i.p. day 7
Procedure: The murine Lewis lung adenocarcinoma was implanted subcutaneously in the hind-leg of male C57BL/6 mice and allowed to grow for one week. Groups of mice were then left untreated or treated with either squalamine (20 mg/kg/day, s.c.), cyclophosphamide (125 mg/kg, i.p. on days 7, 9 and 11), cisplatin (10 mg/kg, i.p. on day 7), the combination of squalamine and cyclophosphamide, or the combination of squalamine and cisplatin. On day 20, the animals were sacrificed, and the mean number of lung metastases were determined for each group.

parental 2008 cell line = experiment: Human ovarian tumor 2008 xenograft with cisplatin; assay type: in vivo, female Swiss nude mice; details: cisplatin single dose 4 mg/kg, squalamine 2 mg/kg, days 1-10
Procedure: Human ovarian tumor cells were injected subcutaneously (5×10^7 cells per animal) in the mid-back region of female Swiss nude mice. The human ovarian tumors were either the parental 2008 cell line (cf. R. J. Pietras et al., Oncogene 9, 1829-1838 (1994)) or a transfected variant overexpressing the Her-2/neu receptor. The overexpression of the Her-2/neu receptor is considered to make the resulting xenograft tumors more angiogenic and less responsive to chemotherapy. After one week, animals were randomized to groups receiving no treatment (controls), a single dose of cisplatin (4 mg/kg), daily treatment with squalamine (2 mg/kg, days 1-10) or cisplatin plus squalamine. The growth of tumors was then scored on day 28 following initiation of chemotherapy. The results were very similar with the parental 2008 tumor and the transfected variant overexpressing the Her-2/neu receptor. […] In this xenograft model, the [day 28 mean treated tumor weight increase divided by the day 28 mean control tumor weight increase (T/C)] x 100% was subtracted from 100% to give the tumor growth inhibition (TGI) value for each group.

Compound: CC(C)[C@@H](CC[C@@H](C)[C@H]1CC[C@H]2[C@@H]3[C@H](O)C[C@H]4C[C@@H](NCCCNCCCCN)CC[C@]4(C)[C@H]3CC[C@]12C)OS(=O)(=O)O [Squalamine, squalamine]
- effect on capillary beds ([1]; after five minutes): little effect
- effect on capillary beds ([1]; after forty minutes): additional capillary regression was observed
- effect on capillary beds ([1]; in twenty minutes): the capillary bed appeared to be disappearing
- effect on activity of NHE3 lacking the 76 C-terminal amino acids [2]: virtually no effect
- inhibition of BBMV NHE [3]: 51%
- growth stimulation induced by b-FGF, PDGFbb, scatter factor, conditioned tumor media, human brain cyst fluid [4]: interfere with growth stimulation
- toxicity, health of animals [5]: remained healthy
- % Reduction (based on control volume) [6]: 81.7%
- Mean Tumor volume [6]: 3,347 mm^3
- % Reduction (based on control volume) ([6]; listed as squalamine): 81.7%
- rate of progression of the breast tumors ([7]; squalamine 10 mg/kg/day after single 200 mg/kg cyclophosphamide, all times examined): significant (P<0.01) inhibition in the rate of progression of the breast tumors
- progression of the breast tumors ([7]; squalamine 20 mg/kg/day after single 200 mg/kg cyclophosphamide, only at 30 days post-initiation): significant (P<0.05) delay in progression of the breast tumors
- long-term cure rate vs cyclophosphamide alone ([7]; squalamine 20 mg/kg/day for five weeks after cyclophosphamide, 90 days): doubled the long-term cure rate
- tolerability of high dose ([7]; squalamine 20 mg/kg/day, discontinued after five weeks): animal weight loss and potential toxicity concerns
- tumor growth, monotherapy [8]: minimal effects on tumor growth
- mean number of lung metastases [9]: reduced the number of metastases
- Day 28 Mean Tumor Size (parental 2008 cell line): 2254 mm^3
- Tumor Growth Inhibition (TGI) Index (parental 2008 cell line; day 28): 41%
